In patent US10414811B2, “Protease-resistant lipidated GLP-1 analogs” (MEDIMMUNE LIMITED, priority 2015, dated 2019):
Like-named read-outs stand apart in the source and are kept apart here. Numbered stars: 1 amine (or outer) side, 2 acyl side, 3 side chain; on linkers, the order of the positions; unused ones are H or OH. Square brackets hold non-standard residues; d marks the D form. Side chains are listed from the residue outwards. Peptide text beside a SMILES is read from it. * marks the point of attachment. γGlu = O=C(O)[C@H](CCC(=O)[*:2])N[*:1]; Palmitoyl = CCCCCCCCCCCCCCCC(=O)*; αMeF = C[C@](N)(Cc1ccccc1)C(=O)O; αMeK = C[C@](N)(CCCCN)C(=O)O; αMeS = C[C@](N)(CO)C(=O)O; Aib = CC(C)(N)C(=O)O

Columns and labels:
Format in all cases: cell-based
[1] = target: T1, human GLP-1 receptor (GLP-1R) (Homo sapiens, UniProt P43220); test: cAMP assay, human GLP-1R cells
T1 construct: expressed in transfected cells
T1 sequence (P43220 24-463): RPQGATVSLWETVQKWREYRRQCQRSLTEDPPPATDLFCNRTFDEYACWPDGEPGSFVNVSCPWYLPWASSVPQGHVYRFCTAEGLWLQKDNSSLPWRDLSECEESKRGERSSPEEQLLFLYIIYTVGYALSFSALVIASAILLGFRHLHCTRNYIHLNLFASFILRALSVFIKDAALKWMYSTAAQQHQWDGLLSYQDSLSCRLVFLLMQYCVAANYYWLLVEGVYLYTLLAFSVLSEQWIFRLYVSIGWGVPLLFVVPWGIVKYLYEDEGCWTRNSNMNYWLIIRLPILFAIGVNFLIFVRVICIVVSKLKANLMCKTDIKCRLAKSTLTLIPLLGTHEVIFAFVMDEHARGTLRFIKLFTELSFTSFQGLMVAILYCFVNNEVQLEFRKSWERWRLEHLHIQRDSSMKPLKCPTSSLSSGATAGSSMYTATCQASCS
Method in brief: (§1)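 Peptide-stimulated cAMP measured by two-step HTRF after a 30 min room-temperature incubation with receptor-expressing cells (hGLP-1R, hGIPR at 1×10^5 cells/ml; hGCGR at 2×10^5 cells/ml). Duplicate dilutions; EC50 from 4-parameter logistic fit of % Delta F.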

[2] = target: T2, human glucagon receptor (GCGR) (Homo sapiens, UniProt P47871); test: cAMP assay, human GCGR cells; conditions: cAMP assay
T2 construct: expressed in transfected cells
T2 sequence (P47871 26-477): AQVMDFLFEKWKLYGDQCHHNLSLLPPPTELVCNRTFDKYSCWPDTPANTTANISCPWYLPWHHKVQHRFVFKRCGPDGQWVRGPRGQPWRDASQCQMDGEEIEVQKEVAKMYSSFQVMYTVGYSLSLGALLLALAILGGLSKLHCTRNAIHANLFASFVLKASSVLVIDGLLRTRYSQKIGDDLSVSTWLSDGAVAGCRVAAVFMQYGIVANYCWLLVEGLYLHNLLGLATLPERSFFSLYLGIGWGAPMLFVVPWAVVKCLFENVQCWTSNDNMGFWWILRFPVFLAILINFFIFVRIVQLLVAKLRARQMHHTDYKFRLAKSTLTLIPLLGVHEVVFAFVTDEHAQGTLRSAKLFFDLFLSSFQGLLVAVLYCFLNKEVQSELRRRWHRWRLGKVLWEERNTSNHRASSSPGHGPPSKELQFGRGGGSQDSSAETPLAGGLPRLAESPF
Method in brief: as §1

[3] = target: T3, human glucose-dependent insulinotropic peptide receptor (GIPR) (Homo sapiens, UniProt P48546); test: cAMP assay, human GIPR cells; conditions: cAMP assay
T3 construct: expressed in transfected cells
T3 sequence (P48546 22-466): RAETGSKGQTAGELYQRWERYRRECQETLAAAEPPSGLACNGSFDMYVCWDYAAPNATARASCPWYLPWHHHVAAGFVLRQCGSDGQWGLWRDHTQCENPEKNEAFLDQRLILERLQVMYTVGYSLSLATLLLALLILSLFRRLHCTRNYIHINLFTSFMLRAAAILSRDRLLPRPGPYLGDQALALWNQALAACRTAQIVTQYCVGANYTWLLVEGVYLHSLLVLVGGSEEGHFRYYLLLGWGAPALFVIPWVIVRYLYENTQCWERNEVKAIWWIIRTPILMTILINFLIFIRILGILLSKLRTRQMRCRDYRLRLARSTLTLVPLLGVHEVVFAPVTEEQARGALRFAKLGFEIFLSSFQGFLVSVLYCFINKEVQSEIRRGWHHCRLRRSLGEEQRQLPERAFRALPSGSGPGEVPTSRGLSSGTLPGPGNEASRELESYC
Method in brief: as §1

[4] = cAMP assay, first determination (n1), read-out: Primary assay EC50 GLP-1R n1
[5] = cAMP assay, second determination (n2), read-out: Primary assay EC50 GLP-1R n2
[6] = mean of n1 and n2, read-out: Mean pM GLP-1R
[7] = first determination (n1), read-out: Primary assay EC50 Gluc-R (n1)
[8] = second determination (n2), read-out: Primary assay EC50 Gluc-R (n2)
[9] = first determination (n1), read-out: Primary assay EC50 GIP-R (n1)
[10] = second determination (n2), read-out: Primary assay EC50 GIP-R (n2)

Structure (SMILES)	EC50 [1, 4]	EC50 [1, 5]	EC50 [1, 6]	EC50 [2, 7]	EC50 [2, 8]	EC50 [3, 9]	EC50 [3, 10]
CCCCCCCCCCCCCCCC(=O)N[C@@H](CCC(=O)NCCCC[C@H](NC(=O)[C@H](C)NC(=O)[C@H](C)NC(=O)[C@H](CCC(=O)O)NC(=O)CNC(=O)[C@H](CCC(=O)O)NC(=O)[C@H](CC(C)C)NC(=O)[C@](C)(Cc1ccccc1)NC(=O)[C@H](CO)NC(=O)[C@](C)(CO)NC(=O)[C@@H](NC(=O)[C@H](CC(=O)O)NC(=O)[C@H](CO)NC(=O)[C@@H](NC(=O)[C@](C)(Cc1ccccc1)NC(=O)[C@H](CO)NC(=O)CNC(=O)[C@H](CCC(=O)O)NC(=O)C(C)(C)NC(=O)[C@@H](N)Cc1c[nH]cn1)[C@@H](C)O)C(C)C)C(=O)N[C@@H](CCC(=O)O)C(=O)N[C@@](C)(Cc1ccccc1)C(=O)N[C@H](C(=O)N[C@@H](C)C(=O)N[C@@](C)(Cc1ccccc1)C(=O)N[C@H](C(=O)N[C@H](C(=O)N[C@@](C)(CCCCN)C(=O)NCC(=O)NCC(N)=O)C(C)C)C(C)C)[C@@H](C)CC)C(=O)O [compound 34]	39 pM	48 pM	43 pM	≥ 93 nM	≥ 93 nM	≥ 93 nM	≥ 93 nM
CCCCCCCCCCCCCCCC(=O)N[C@@H](CCC(=O)NCCCC[C@H](NC(=O)CNC(=O)CNC(=O)[C@](C)(CCCCN)NC(=O)[C@@H](NC(=O)[C@@H](NC(=O)[C@](C)(Cc1ccccc1)NC(=O)[C@H](C)NC(=O)[C@@H](NC(=O)[C@](C)(Cc1ccccc1)NC(=O)[C@H](CCC(=O)O)NC(=O)[C@](C)(CCCCN)NC(=O)[C@H](C)NC(=O)[C@H](C)NC(=O)[C@H](CCC(=O)O)NC(=O)CNC(=O)[C@H](CCC(=O)O)NC(=O)[C@H](CC(C)C)NC(=O)[C@](C)(Cc1ccccc1)NC(=O)[C@H](CO)NC(=O)[C@](C)(CO)NC(=O)[C@@H](NC(=O)[C@H](CC(=O)O)NC(=O)[C@H](CC(=O)O)NC(=O)[C@@H](NC(=O)[C@](C)(Cc1ccccc1)NC(=O)[C@H](CO)NC(=O)CNC(=O)[C@H](CCC(=O)O)NC(=O)C(C)(C)NC(=O)[C@@H](N)Cc1c[nH]cn1)[C@@H](C)O)C(C)C)[C@@H](C)CC)C(C)C)C(C)C)C(N)=O)C(=O)O [compound 35] (H-H[Aib]EGS[αMeF]TDDV[αMeS]S[αMeF]LEGEAA[αMeK]E[αMeF]IA[αMeF]VV[αMeK]GGK([γGlu-Palmitoyl])-NH2; N-terminus assumed)	4900 pM	1700 pM	3260 pM	≥ 89 nM	≥ 27 nM	≥ 89 nM	≥ 27 nM
CCCCCCCCCCCCCCCC(=O)N[C@@H](CCC(=O)NCCCC[C@H](NC(=O)CNC(=O)CNC(=O)[C@H](CCCCN)NC(=O)[C@@H](NC(=O)[C@@H](NC(=O)[C@](C)(Cc1ccccc1)NC(=O)[C@H](C)NC(=O)[C@@H](NC(=O)[C@](C)(Cc1ccccc1)NC(=O)[C@H](CCC(=O)O)NC(=O)[C@H](CCCCN)NC(=O)[C@H](C)NC(=O)[C@H](C)NC(=O)[C@H](CCC(=O)O)NC(=O)CNC(=O)[C@H](CCC(=O)O)NC(=O)[C@H](CC(C)C)NC(=O)[C@](C)(Cc1ccccc1)NC(=O)[C@H](CO)NC(=O)[C@H](CO)NC(=O)[C@@H](NC(=O)[C@H](CC(=O)O)NC(=O)[C@H](CO)NC(=O)[C@@H](NC(=O)[C@](C)(Cc1ccccc1)NC(=O)[C@H](CO)NC(=O)CNC(=O)[C@H](CCC(=O)O)NC(=O)C(C)(C)NC(=O)[C@@H](N)Cc1c[nH]cn1)[C@@H](C)O)C(C)C)[C@@H](C)CC)C(C)C)C(C)C)C(N)=O)C(=O)O [compound 39] (H-H[Aib]EGS[αMeF]TSDVSS[αMeF]LEGEAAKE[αMeF]IA[αMeF]VVKGGK([γGlu-Palmitoyl])-NH2; N-terminus assumed)	33 pM	33 pM	33 pM	≥ 27 nM	≥ 27 nM	≥ 27 nM	≥ 27 nM

Second part, the compound after the results:

EC50 [1, 4]	EC50 [1, 5]	EC50 [1, 6]	EC50 [2, 7]	EC50 [2, 8]	EC50 [3, 9]	EC50 [3, 10]	Structure (SMILES)
36 pM	18 pM	27 pM	≥ 90 nM	≥ 90 nM	≥ 90 nM	≥ 90 nM	CCCCCCCCCCCCCCCC(=O)N[C@@H](CCC(=O)NCCCC[C@H](NC(=O)CNC(=O)CNC(=O)[C@](C)(CCCCN)NC(=O)[C@@H](NC(=O)[C@@H](NC(=O)[C@](C)(Cc1ccccc1)NC(=O)[C@H](C)NC(=O)[C@@H](NC(=O)[C@](C)(Cc1ccccc1)NC(=O)[C@H](CCC(=O)O)NC(=O)[C@](C)(CCCCN)NC(=O)[C@H](C)NC(=O)[C@H](C)NC(=O)[C@H](CCC(=O)O)NC(=O)CNC(=O)[C@H](CCC(=O)O)NC(=O)[C@H](CC(C)C)NC(=O)[C@](C)(Cc1ccccc1)NC(=O)[C@H](CO)NC(=O)[C@](C)(CO)NC(=O)[C@@H](NC(=O)[C@H](CC(=O)O)NC(=O)[C@H](CO)NC(=O)[C@@H](NC(=O)[C@](C)(Cc1ccccc1)NC(=O)[C@H](CO)NC(=O)CNC(=O)[C@H](CCC(=O)O)NC(=O)C(C)(C)NC(=O)[C@@H](N)Cc1c[nH]cn1)[C@@H](C)O)C(C)C)[C@@H](C)CC)C(C)C)C(C)C)C(N)=O)C(=O)O [compound 32] (H-H[Aib]EGS[αMeF]TSDV[αMeS]S[αMeF]LEGEAA[αMeK]E[αMeF]IA[αMeF]VV[αMeK]GGK([γGlu-Palmitoyl])-NH2)
7300 pM	1700 pM	4500 pM	≥ 92 nM	≥ 28 nM	≥ 92 nM	≥ 28 nM	CCCCCCCCCCCCCCCC(=O)N[C@@H](CCC(=O)NCCCC[C@H](NC(=O)[C@H](C)NC(=O)[C@H](C)NC(=O)[C@H](CCC(=O)O)NC(=O)CNC(=O)[C@H](CCC(=O)O)NC(=O)[C@H](CC(C)C)NC(=O)[C@](C)(Cc1ccccc1)NC(=O)[C@H](CO)NC(=O)[C@](C)(CO)NC(=O)[C@@H](NC(=O)[C@H](CC(=O)O)NC(=O)[C@H](CC(=O)O)NC(=O)[C@@H](NC(=O)[C@](C)(Cc1ccccc1)NC(=O)[C@H](CO)NC(=O)CNC(=O)[C@H](CCC(=O)O)NC(=O)C(C)(C)NC(=O)[C@@H](N)Cc1c[nH]cn1)[C@@H](C)O)C(C)C)C(=O)N[C@@H](CCC(=O)O)C(=O)N[C@@](C)(Cc1ccccc1)C(=O)N[C@H](C(=O)N[C@@H](C)C(=O)N[C@@](C)(Cc1ccccc1)C(=O)N[C@H](C(=O)N[C@H](C(=O)N[C@@](C)(CCCCN)C(=O)NCC(=O)NCC(N)=O)C(C)C)C(C)C)[C@@H](C)CC)C(=O)O [compound 37] (H-H[Aib]EGS[αMeF]TDDV[αMeS]S[αMeF]LEGEAAK([γGlu-Palmitoyl])E[αMeF]IA[αMeF]VV[αMeK]GG-NH2)
62 pM	82 pM	72 pM	25 nM	25 nM	25 nM	25 nM	CC[C@H](C)[C@H](NC(=O)[C@](C)(Cc1ccccc1)NC(=O)[C@H](CCC(=O)O)NC(=O)[C@H](CCCCN)NC(=O)[C@H](C)NC(=O)[C@H](C)NC(=O)[C@H](CCC(=O)O)NC(=O)CNC(=O)[C@H](CCC(=O)O)NC(=O)[C@H](CC(C)C)NC(=O)[C@](C)(Cc1ccccc1)NC(=O)[C@H](CO)NC(=O)[C@H](CO)NC(=O)[C@@H](NC(=O)[C@H](CC(=O)O)NC(=O)[C@H](CO)NC(=O)[C@@H](NC(=O)[C@](C)(Cc1ccccc1)NC(=O)[C@H](CO)NC(=O)CNC(=O)[C@H](CCC(=O)O)NC(=O)C(C)(C)NC(=O)[C@@H](N)Cc1c[nH]cn1)[C@@H](C)O)C(C)C)C(=O)N[C@@H](C)C(=O)N[C@@](C)(Cc1ccccc1)C(=O)N[C@H](C(=O)N[C@H](C(=O)N[C@@H](CCCCN)C(=O)NCC(=O)NCC(=O)N[C@@H](CCCCNC(=O)COCCOCCNC(=O)COCCOCCNC(=O)CC[C@H](NC(=O)CCCCCCCCCCCCCCCCC(=O)O)C(=O)O)C(N)=O)C(C)C)C(C)C [compound 38]
1800 pM	570 pM	1170 pM	≥ 85 nM	≥ 26 nM	≥ 85 nM	≥ 26 nM	CC[C@H](C)[C@H](NC(=O)[C@](C)(Cc1ccccc1)NC(=O)[C@H](CCC(=O)O)NC(=O)[C@H](CCCCNC(=O)COCCOCCNC(=O)COCCOCCNC(=O)CC[C@H](NC(=O)CCCCCCCCCCCCCCCCC(=O)O)C(=O)O)NC(=O)[C@H](C)NC(=O)[C@H](C)NC(=O)[C@H](CCC(=O)O)NC(=O)CNC(=O)[C@H](CCC(=O)O)NC(=O)[C@H](CC(C)C)NC(=O)[C@](C)(Cc1ccccc1)NC(=O)[C@H](CO)NC(=O)[C@H](CO)NC(=O)[C@@H](NC(=O)[C@H](CC(=O)O)NC(=O)[C@H](CO)NC(=O)[C@@H](NC(=O)[C@](C)(Cc1ccccc1)NC(=O)[C@H](CO)NC(=O)CNC(=O)[C@H](CCC(=O)O)NC(=O)C(C)(C)NC(=O)[C@@H](N)Cc1c[nH]cn1)[C@@H](C)O)C(C)C)C(=O)N[C@@H](C)C(=O)N[C@@](C)(Cc1ccccc1)C(=O)N[C@H](C(=O)N[C@H](C(=O)N[C@@H](CCCCN)C(=O)NCC(=O)NCC(N)=O)C(C)C)C(C)C [compound 40]
